Measurements taken from patent publication US7642378B2, “Lipid lowering biphenylcarboxamides” (Janssen Pharmaceutica NV, priority 2001, dated 2010).

Legend:
Secretion of ApoB = test: Quantification of the secretion of ApoB; type: cell-based; settings: HepG2 cells, 24 hours of incubation with test compound
Description: HepG2 cells were cultured in 24-well plates in MEM Rega 3 containing 10% fetal calf serum. At 70% confluency, the medium was changed and the test compound or carrier (DMSO, 0.4% final concentration) was added. After 24 hours of incubation, the medium was transferred to Eppendorf tubes and cleared by centrifugation. A sheep antibody directed against either apoB was added to the supernatant and the mixture was kept at 8° C. for 24 hours. Then, rabbit anti-sheep antibody was added and the immune complex was allowed to precipitate for 24 hours at 8° C. The immunoprecipitate was pelleted by centrifugation for 25 minutes at 1320 g and washed twice with a buffer containing 40 mM Mops, 40 mM NaH2PO4, 100 mM NaF, 0.2 mM DTT, 5 mM EDTA, 5 mM EGTA, 1% Triton-X-100, 0.5% sodium deoxycholate (DOC), 0.1% SDS, 0.2 μM leupeptin and 0.2 μM PMSF. Radioactivity in the pellet was quantified by liquid scintillation counting.
Resulting IC50 values are enumerated in Table C. 1.

| melting point [°C] | pIC50 values (=−log IC50 value) (Secretion of ApoB) | SMILES |
| --- | --- | --- |
| 106 | – | COC(=O)COC(=O)C(c1ccccc1)N1CCN(c2ccc(NC(=O)c3ccccc3-c3ccc(C(F)(F)F)cc3)cc2)CC1 (stereo not drawn) [Co. No. 14, 2-methoxy-2-oxoethyl α-phenyl-4-[4-[[[4′-(trifluoromethyl)[1,1′-biphenyl]-2-yl]carbonyl]amino]phenyl]-1-piperazineacetate] |
| 119.9 to 120 | – | COC(=O)CNC(=O)C(c1ccccc1)C1CCN(c2ccc(NC(=O)c3ccccc3-c3ccc(C(C)(C)C)cc3)cc2)CC1 (stereo not drawn) [Co. No. 145, (B)—N-[[1-[4-[[[4′-(1,1-dimethylethyl)[1,1′-biphenyl]-2-yl]carbonyl]amino]phenyl]-4-piperidinyl]phenylacetyl]-glycine methyl ester] |
| – | 6.591 | COC(=O)COC(=O)C(c1ccccc1)N1CCN(c2ccc(NC(=O)c3ccccc3-c3ccc(C(F)(F)F)cc3)cc2)CC1 (stereo not drawn) [compound 14] |
